Measurements reported in patent US20090270398A1, “Compounds, Compositions and Methods Comprising Pyridazine Derivatives” (Institute for OneWorld Health, priority 2008, published 2009).

What follows are molecules tested on cholera toxin (CTX)-induced net fluid secretion in intestinal loops (assay: not given). Conditions: 4 hours.
Assay type: in vivo, mice (CD1 strain)

First: OCCN(Cc1ccccc1)c1ccc(-c2cc(Cl)c(O)c(Cl)c2)nn1 [Compound 98, 4-(6-(benzyl(2-hydroxyethyl)amino)pyridazin-3-yl)-2,6-dichlorophenol]
Second: CCN(Cc1ccccc1)c1ccc(-c2cc(Cl)c(O)c(Cl)c2)nn1 [Compound 115, 4-(6-(benzyl(ethyl)amino)pyridazin-3-yl)-2,6-dichlorophenol]
The “closed loop % inhibition @ 100 μg” value of the first is lower: 67.0% for the first, 79.4% for the second.

These molecules were tested against T1, CFTR (Homo sapiens, UniProt P13569) (assay: T84 assay (FLIPR membrane potential, forskolin/IBMX-stimulated CFTR channel activity)). Conditions: average of at least 2 runs unless annotated n = 1.
T1 construct: results in the phosphorylation and opening of CFTR anion channels
T1 sequence (P13569 whole entry): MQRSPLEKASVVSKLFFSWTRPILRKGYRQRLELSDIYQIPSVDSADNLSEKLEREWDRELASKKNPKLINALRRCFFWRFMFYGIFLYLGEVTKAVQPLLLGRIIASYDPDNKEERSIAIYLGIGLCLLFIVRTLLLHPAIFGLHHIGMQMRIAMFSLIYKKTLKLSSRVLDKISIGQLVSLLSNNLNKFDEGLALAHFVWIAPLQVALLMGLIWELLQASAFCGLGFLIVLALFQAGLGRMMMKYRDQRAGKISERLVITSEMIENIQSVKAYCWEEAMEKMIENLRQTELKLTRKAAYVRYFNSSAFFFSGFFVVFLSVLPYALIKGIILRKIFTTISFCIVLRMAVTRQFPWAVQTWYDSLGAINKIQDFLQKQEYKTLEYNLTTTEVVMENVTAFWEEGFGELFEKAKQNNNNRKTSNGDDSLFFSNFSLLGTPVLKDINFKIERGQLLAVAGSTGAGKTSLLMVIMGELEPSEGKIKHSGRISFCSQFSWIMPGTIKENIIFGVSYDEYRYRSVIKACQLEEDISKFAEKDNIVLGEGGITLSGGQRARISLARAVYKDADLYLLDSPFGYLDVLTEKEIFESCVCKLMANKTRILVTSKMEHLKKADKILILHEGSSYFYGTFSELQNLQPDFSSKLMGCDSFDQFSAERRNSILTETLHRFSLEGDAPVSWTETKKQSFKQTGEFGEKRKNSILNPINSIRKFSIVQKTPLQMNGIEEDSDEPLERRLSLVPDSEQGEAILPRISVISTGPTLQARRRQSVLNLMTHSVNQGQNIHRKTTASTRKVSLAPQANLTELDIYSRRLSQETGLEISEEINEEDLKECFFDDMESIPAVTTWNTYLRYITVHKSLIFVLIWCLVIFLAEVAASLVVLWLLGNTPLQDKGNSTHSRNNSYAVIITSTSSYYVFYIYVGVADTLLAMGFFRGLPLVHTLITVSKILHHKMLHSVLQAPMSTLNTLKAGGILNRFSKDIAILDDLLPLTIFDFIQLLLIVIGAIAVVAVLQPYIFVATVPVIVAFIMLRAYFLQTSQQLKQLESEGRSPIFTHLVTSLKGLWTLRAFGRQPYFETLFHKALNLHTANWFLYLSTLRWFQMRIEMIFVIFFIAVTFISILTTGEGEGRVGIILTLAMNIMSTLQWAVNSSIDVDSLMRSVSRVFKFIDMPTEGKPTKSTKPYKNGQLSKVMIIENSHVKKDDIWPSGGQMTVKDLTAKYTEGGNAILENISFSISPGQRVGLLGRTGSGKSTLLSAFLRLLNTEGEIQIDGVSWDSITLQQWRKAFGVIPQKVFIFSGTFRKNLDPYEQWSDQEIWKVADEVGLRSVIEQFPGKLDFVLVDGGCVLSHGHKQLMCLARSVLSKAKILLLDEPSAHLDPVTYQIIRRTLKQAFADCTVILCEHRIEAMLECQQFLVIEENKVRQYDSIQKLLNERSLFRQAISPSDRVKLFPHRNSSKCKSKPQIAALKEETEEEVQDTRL
Assay type: cell-based
Procedure: (§1) For example, Human colonic T84 cells can be acquired from the European Collection of Cell Cultures (ECACC) and grown in standard culture conditions as described by the supplier. On the day before assay 25,000 T84 cells per well are plated into standard black walled, clear bottom 384-well assay plates in standard growth medium consisting of DMEM:F12 with 10% FBS and incubated overnight. On the day of the assay the plates are washed using a standard assay buffer (HBSS with 10 mM Hepes) and incubated for 15 minutes in serum free cell culture medium before the addition of a commercially available membrane potential sensitive fluorescent dye (FLIPR Red membrane potential dye, Molecular Devices Corporation). T84 cells are incubated with the FLIPR Red membrane potential dye for 45 minutes in the presence and absence of test compound before being transferred to a commercially available fluorescence imaging plate reader (FLIPR384, Molecular Devices Corporation). Fluorescence levels are monitored continuously every second for 150 seconds; after an initial 10 second baseline, CFTR channel activity is stimulated through the addition of 10 μM forskolin in the presence of 100 μM of the phosphodiesterase inhibitor iso-butyl-methylxanthine (IBMX). Addition of the forskolin leads to the activation of intracellular adenylyl cylase 1, elevating cAMP levels and results in the phosphorylation and opening of CFTR anion channels. CFTR channel opening causes chloride ion efflux and subsequent depolarization of the cells, which is measured by an increase in fluorescence. CFTR inhibitor compounds prevent cell depolarization and the associated increase in fluorescence.
as §1, with “Human colonic” for “For example, Human colonic”, “T84 cells are acquired from” for “T84 cells can be acquired from”, “(ECACC) and are grown in” for “(ECACC) and grown in”
Unless otherwise indicated, the IC50 values are reported as an average of at least 2 runs. Where only 1 run is used, this is indicated by the annotation “n=1.”

Compared with `OCCN(Cc1ccccc1)c1ccc(-c2cc(Cl)c(O)c(Cl)c2)nn1` [Compound 98, 4-(6-(benzyl(2-hydroxyethyl)amino)pyridazin-3-yl)-2,6-dichlorophenol], `CCN(Cc1ccccc1)c1ccc(-c2cc(Cl)c(O)c(Cl)c2)nn1` [Compound 115, 4-(6-(benzyl(ethyl)amino)pyridazin-3-yl)-2,6-dichlorophenol] is 63-fold lower in IC50: 630 nM for the first, 10 nM for the second.

`CCN(Cc1ccc(OCc2ccccc2)cc1)c1ccc(-c2cc(Cl)c(O)c(Cl)c2)nn1` [Compound 128, 4-(6-((4-(benzyloxy)benzyl)(ethyl)amino)pyridazin-3-yl)-2,6-dichlorophenol] and `Oc1c(Cl)cc(-c2ccc(N(Cc3ccccc3)Cc3ccccc3)nn2)cc1Cl` [Compound 133, 2,6-dichloro-4-(6-(dibenzylamino)pyridazin-3-yl)phenol] are within 1.5-fold of each other in IC50: 370 nM for the first, 380 nM for the second.

`CCOc1ccc(CN(CC)c2ccc(-c3cc(Cl)c(O)c(Cl)c3)nn2)cc1OC` [Compound 129, 2,6-dichloro-4-(6-((4-ethoxy-3-methoxybenzyl)(ethyl)amino)pyridazin-3-yl)phenol] and `CCN(Cc1ccc(OC)c(F)c1)c1ccc(-c2cc(Cl)c(O)c(Cl)c2)nn1` [Compound 131, 2,6-dichloro-4-(6-(ethyl(3-fluoro-4-methoxybenzyl)amino)pyridazin-3-yl)phenol] are within 1.5-fold of each other in IC50: 1160 nM for the first, 1460 nM for the second.

Compared with `OCCN(Cc1cccc(OCc2ccccc2Cl)c1)c1ccc(-c2cc(Cl)c(O)c(Cl)c2)nn1` [Compound 130, 2,6-dichloro-4-(6-((3-(2-chlorobenzyloxy)benzyl)(2-hydroxyethyl)amino)pyridazin-3-yl)phenol], `COc1ccc(CN(CCO)c2ccc(-c3cc(Cl)c(O)c(Cl)c3)nn2)cc1OC` [Compound 134, 2,6-dichloro-4-(6-((3,4-dimethoxybenzyl)(2-hydroxyethyl)amino)pyridazin-3-yl)phenol] is 3-fold higher in IC50: 2270 nM for the first, 6900 nM for the second. The first is the more potent here.

`CN(Cc1ccc2ncccc2c1)c1ccc(-c2cc(Cl)c(O)c(Cl)c2)nn1` [Compound 132, 2,6-dichloro-4-(6-(methyl(quinolin-6-ylmethyl)amino)pyridazin-3-yl)phenol] and `Oc1c(Cl)cc(-c2ccc(NCc3ccc(Cl)c(Cl)c3)nn2)cc1Cl` [Compound 137, 2,6-dichloro-4-(6-(3,4-dichlorobenzylamino)pyridazin-3-yl)phenol] are within 1.5-fold of each other in IC50: 6690 nM for the first, 6000 nM for the second.

`Oc1c(Cl)cc(-c2ccc(N3CCN(c4cccc(F)c4)CC3)nn2)cc1Cl` [Compound 135, 2,6-dichloro-4-(6-(4-(3-fluorophenyl)piperazin-1-yl)pyridazin-3-yl)phenol] and `Oc1c(Cl)cc(-c2ccc(N3CCC(Cc4ccccc4)CC3)nn2)cc1Cl` [Compound 136, 4-(6-(4-benzylpiperidin-1-yl)pyridazin-3-yl)-2,6-dichlorophenol] are within 1.5-fold of each other in IC50: 19600 nM for the first, 24900 nM for the second.

`Oc1c(Cl)cc(-c2ccc(NCc3cc(F)cc(C(F)(F)F)c3)nn2)cc1Cl` [Compound 138, 2,6-dichloro-4-(6-(3-fluoro-5-(trifluoromethyl)benzylamino)pyridazin-3-yl)phenol] showed an IC50 of 9580 nM.
